{"source": "patent US9949981B2", "about": "“Compositions and methods for treating proliferation disorders” (Arqule, Inc., priority 2014, dated 2018)", "key": {"[1]": {"test_system": "Proteus single cell clones (A6B AKT1 p.E17K positive and E8F9A mutation negative cells)", "test": "Viability of Proteus single cell clones", "format": "cell-based, human", "conditions": "presence or absence of serum; 24 hours serum starvation; 72 hours; FIGS. 5A and 5B"}, "[2]": {"test_system": "S6 phosphorylation in Proteus single cell clones", "conditions": "F6B mutation positive and H4A mutation negative clones; with or without serum; FIGS. 16A and 16B"}, "[3]": {"test_system": "AKT1 phosphorylation in Proteus single cell clones", "conditions": "FIG. 15"}, "[4]": {"test_system": "pAKT in KU-19-19 (E17K) mutant bladder cancer cells", "test": "pAKT in KU-19-19 cells, two hour treatment", "conditions": "normal medium, 2 hours, FIGS. 17 and 18"}, "[5]": {"test_system": "pPRAS40 in KU-19-19 (E17K) mutant bladder cancer cells", "test": "pPRAS40 in KU-19-19 cells, two hour treatment", "conditions": "normal medium, 2 hours, FIGS. 17 and 18"}, "[6]": {"target": "AKT1 (Homo sapiens, UniProt P31749)", "sequence (P31749 whole entry)": "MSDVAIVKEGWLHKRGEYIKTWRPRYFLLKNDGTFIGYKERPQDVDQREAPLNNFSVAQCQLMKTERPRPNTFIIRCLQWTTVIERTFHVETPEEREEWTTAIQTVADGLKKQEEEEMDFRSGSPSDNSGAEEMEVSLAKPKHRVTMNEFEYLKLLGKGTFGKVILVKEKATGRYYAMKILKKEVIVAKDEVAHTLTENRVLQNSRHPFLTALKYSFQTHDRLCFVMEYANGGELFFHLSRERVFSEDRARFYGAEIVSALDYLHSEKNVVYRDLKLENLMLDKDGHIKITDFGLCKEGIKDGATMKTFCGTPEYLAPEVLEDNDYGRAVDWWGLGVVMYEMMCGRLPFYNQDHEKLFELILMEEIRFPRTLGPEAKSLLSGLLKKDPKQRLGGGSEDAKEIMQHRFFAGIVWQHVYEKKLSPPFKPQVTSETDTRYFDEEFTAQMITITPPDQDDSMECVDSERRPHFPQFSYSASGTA", "test": "Inactive AKT Alpha Screen Assay"}}, "note": "Like-named read-outs stand apart in the source and are kept apart here.", "data": [{"molecule": "CO[C@H]1C[C@@H]2CC[C@@H](C)[C@@](O)(O2)C(=O)C(=O)N2CCCC[C@H]2C(=O)O[C@H]([C@H](C)C[C@@H]2CC[C@@H](OCCO)[C@H](OC)C2)CC(=O)[C@H](C)/C=C(\\C)[C@@H](O)[C@@H](OC)C(=O)[C@H](C)C[C@H](C)/C=C/C=C/C=C/1C", "note": "[everolimus]", "values": [{"measurement": "viability of Proteus single cell clones", "setting": "[1]", "value": "mutation positive cells are more sensitive than control cells"}, {"measurement": "pS6 levels", "setting": "[2]", "value": "greatly decreases pS6 levels"}, {"measurement": "pAKT/AKT ratio", "setting": "[3]; F6B AKT1 p.E17K mutant cells in serum free conditions", "value": "decreases the pAKT/AKT ratio"}, {"measurement": "pAKT/AKT ratio", "setting": "[3]; mutant negative cells (H4A) or mutant cells gown in serum free conditions", "value": "has no effect or increases the ratio"}]}, {"molecule": "NC1(c2ccc(-c3nc4ccn5c(=O)[nH]nc5c4cc3-c3ccccc3)cc2)CCC1", "note": "[MK-2206, reference compound]", "values": [{"measurement": "pAKT", "setting": "[4]", "value": "inhibit"}, {"measurement": "pPRAS40", "setting": "[5]", "value": "inhibit"}]}, {"molecule": "Nc1ncccc1-c1nc2ccc(-c3cccc(N4CCOCC4)c3)nc2n1-c1ccc(C2(N)CCC2)cc1", "note": "[Compound 2, 3-(3-(4-(1-aminocyclobutyl)phenyl)-5-(3-morpholinophenyl)-3H-imidazo[4,5-b]pyridin-2-yl)pyridin-2-amine]", "values": [{"measurement": "IC50", "setting": "[6]", "value": 2.2, "unit": "nM"}]}]}
